The target of data set [1] is T1, Eukaryotic translation initiation factor 4E (Homo sapiens, UniProt P06730). Briefly: Binding affinity to recombinant human 10His-tagged eIF4E expressed in Escherichia coli BL21 (DE3) cells assessed as association constant by surface plasmon resonance analysis. For orientation: SPR reads the build-up and loss of mass on a sensor chip optically.
The target in data set [2] is T1, Eukaryotic translation initiation factor 4E. Nature of the data set: Inhibition of recombinant human 10His-tagged eIF4E expressed in Escherichia coli BL21 (DE3) cells by catalytic enzyme-linked click chemistry assay.
Data set [3] shares this target. Nature of the data set: Binding affinity to recombinant human 10His-tagged eIF4E expressed in Escherichia coli BL21 (DE3) cells assessed as binding constant by surface plasmon resonance analysis.
Data set [4] has the same target. Briefly: Binding affinity to eIF4E in HEK293 cell lysates assessed as thermal stabilization of protein at 1 to 15 uM incubated for 1 hrs followed by heating at 49 to 52.4 degC for 3 mins by CETSA-based Western blot analysis. The format is subcellular. The settings on record: dose 1-15 µM.
A short description of data set [5]: Drug uptake in cytosol of human HeLa cells stably expressing Halo-tagged-GFP assessed as normalized fluorescence in cytosol incubated for 4 hrs by flow cytometry based CAPA. The data set is classed as ADME, subcellular.
A short description of data set [6]: Drug uptake in cytosol of human HeLa cells stably expressing Halo-tagged-GFP assessed as normalized fluorescence in cytosol at 0.74 uM incubated for 4 hrs by flow cytometry based CAPA relative to control. The data set is classed as ADME, subcellular. (In general: A flow cytometer gives signals particle by particle.)
The target in data set [7] is T2, EIF4E/EIF4G1 (Homo sapiens) (UniProt P06730+Q04637). Nature of the data set: Inhibition of eIF4E/eIF4G interaction in human MDA-MB-231 cells incubated for 6 hr by m7GDP cap pull down assay. The format is cell-based.
Data set [8] deals with T2, EIF4E/EIF4G1 (Homo sapiens). Briefly: Inhibition of eIF4E/eIF4G interaction in human MCF7 cells incubated for 6 hr by m7GDP cap pull down assay. The data set is classed as cell-based.
Data set [9] has the same target. Nature of the data set: Inhibition of eIF4E/eIF4G interaction in human T47D cells incubated for 6 hr by m7GDP cap pull down assay. The data set is classed as cell-based.
Data set [10] deals with MDA-MB-231. Briefly: Anti-proliferative activity against human MDA-MB-231 cells after 6 days by CellTiter-Glo assay. The data set is classed as functional, cell-based. The settings on record: time 6.0 day. (In general: In ATP-based viability assays light output follows the ATP content of the culture.)
Data set [11] has as its system MCF7. Nature of the data set: Anti-proliferative activity against human MCF7 cells after 6 days by CellTiter-Glo assay. The format is functional, cell-based. To be noted: time 6.0 day.
In data set [12] the test system is T47D. Briefly: Anti-proliferative activity against human T47D cells after 6 days by CellTiter-Glo assay. The data set is classed as functional, cell-based. The settings on record: time 6.0 day.
Data set [13] has as its target T1, Eukaryotic translation initiation factor 4E. Briefly: Inhibition of eIF4E in human MCF7 cells measured up to 42 hrs by m7GDP cap pull down assay. The data set is classed as cell-based. To be noted: time hrs <=42.

The source made the active and inactive calls. The calls are words filed in the database; no cut-off is given here. Bridge positions count the residues as written; N and C are the ends. Peptide text beside a SMILES is read from it.

T1 sequence (P06730 whole entry): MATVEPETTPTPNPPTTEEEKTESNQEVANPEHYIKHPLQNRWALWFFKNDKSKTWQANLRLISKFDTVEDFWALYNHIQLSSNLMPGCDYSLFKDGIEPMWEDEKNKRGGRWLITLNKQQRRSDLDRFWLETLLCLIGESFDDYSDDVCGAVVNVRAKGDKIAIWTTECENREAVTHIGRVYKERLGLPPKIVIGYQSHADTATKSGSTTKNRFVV

In the case of `CC[C@H](C)[C@H](NC(=O)[C@H](CCCNC(=N)N)NC(=O)[C@@H](NC(=O)CNC(C)=O)[C@@H](C)O)C(=O)N[C@H](C(=O)N[C@@H](Cc1ccc(O)cc1)C(=O)N[C@@H](CC(=O)O)C(=O)N[C@@H](CCCNC(=N)N)C(=O)N[C@@H](CCCCN)C(=O)N[C@@H](Cc1ccccc1)C(=O)N[C@@H](CC(C)C)C(=O)N[C@@H](CCSC)C(=O)N[C@@H](CCC(=O)O)C(=O)N[C@@H](CS)C(=O)N[C@@H](CCCNC(=N)N)C(=O)N[C@@H](CC(N)=O)C(N)=O)[C@@H](C)CC`, in [1], the Ka amounted to 630000 M⁻¹ s⁻¹.

`CC[C@H](C)[C@H](NC(=O)[C@H](CCCNC(=N)N)NC(C)=O)C(=O)N[C@H](C(=O)N[C@@H](Cc1ccc(O)cc1)C(=O)N[C@@H](CC(=O)O)C(=O)N[C@@H](CCCNC(=N)N)C(=O)N[C@H]1CCC(=O)NCCCC[C@@H](C(=O)N[C@@H](CS)C(=O)N[C@@H](CCCNC(=N)N)C(N)=O)NC(=O)[C@H](CCSC)NC(=O)[C@H](CC(C)C)NC(=O)[C@H](Cc2ccccc2)NC1=O)[C@@H](C)CC` (Ac-RIIYDREFLMKCR-NH2; lactam 7-11): the half-inhibitory concentration (IC50) (usually the concentration needed to halve the response being measured) in data set [2] worked out at 6.5 nM. In data set [1], the Ka was 3.1e+06 M⁻¹ s⁻¹. The dissociation constant (Kd) (as a rule, the equilibrium constant for the complex coming apart) in data set [3] turned out to be 2.2 nM. Further, the outcome in data set [4] and in [13] was Active. Also, the Q50 in data set [5] turned out to be 1.5 µM. In addition, in data set [6], the Drug uptake stood at 20%. Also, the inhibition result in data set [7], in [8] and in [9] was “Dose-dependent effect” throughout. The outcome in data set [10], in data set [11] and in data set [12] was inactive.

As for `CC[C@H](C)[C@H](NC(=O)[C@H](CCCNC(=N)N)NC(C)=O)C(=O)N[C@H](C(=O)N[C@@H](Cc1ccc(O)cc1)C(=O)N[C@@H](CC(=O)O)C(=O)N[C@@H](CCCNC(=N)N)C(=O)N[C@H]1CCCCNC(=O)CC[C@@H](C(=O)N[C@@H](CS)C(=O)N[C@@H](CCCNC(=N)N)C(N)=O)NC(=O)[C@H](CCSC)NC(=O)[C@H](CC(C)C)NC(=O)[C@H](Cc2ccccc2)NC1=O)[C@@H](C)CC` (Ac-RIIYDRKFLMECR-NH2; lactam 7-11), in data set [2], the IC50 was 22 nM. Further, the Ka in data set [1] amounted to 580000 M⁻¹ s⁻¹. The Kd in data set [3] is 7.2 nM. Further, the result in data set [4] was inactive. Further, the Q50 in data set [5] turned out to be 0.25 µM. Besides, the Drug uptake in [6] is recorded as 84%.
